IC50 and Ki data for twelve compounds are collected here from ChEMBL document CHEMBL1909046, “DrugMatrix in vitro pharmacology data”.
Throughout, for Ki: in other assays of this panel Not Active means under 50% inhibition at 10 µM.

Chain of Cannabinoid receptor 1 (P21554 whole entry): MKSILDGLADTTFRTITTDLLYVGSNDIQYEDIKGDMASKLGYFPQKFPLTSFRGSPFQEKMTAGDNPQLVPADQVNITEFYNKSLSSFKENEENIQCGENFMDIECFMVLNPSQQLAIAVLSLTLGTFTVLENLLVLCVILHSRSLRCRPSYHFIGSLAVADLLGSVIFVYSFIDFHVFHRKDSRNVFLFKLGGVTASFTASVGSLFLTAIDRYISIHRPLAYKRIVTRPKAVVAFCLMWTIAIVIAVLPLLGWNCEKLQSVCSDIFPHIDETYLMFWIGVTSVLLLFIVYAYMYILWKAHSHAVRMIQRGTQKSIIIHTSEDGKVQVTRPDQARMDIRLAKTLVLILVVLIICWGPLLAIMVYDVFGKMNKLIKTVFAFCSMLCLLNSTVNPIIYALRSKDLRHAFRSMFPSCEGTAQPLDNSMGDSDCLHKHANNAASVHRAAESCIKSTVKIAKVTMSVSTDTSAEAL
Chain of 5-hydroxytryptamine receptor 2B (P41595 whole entry): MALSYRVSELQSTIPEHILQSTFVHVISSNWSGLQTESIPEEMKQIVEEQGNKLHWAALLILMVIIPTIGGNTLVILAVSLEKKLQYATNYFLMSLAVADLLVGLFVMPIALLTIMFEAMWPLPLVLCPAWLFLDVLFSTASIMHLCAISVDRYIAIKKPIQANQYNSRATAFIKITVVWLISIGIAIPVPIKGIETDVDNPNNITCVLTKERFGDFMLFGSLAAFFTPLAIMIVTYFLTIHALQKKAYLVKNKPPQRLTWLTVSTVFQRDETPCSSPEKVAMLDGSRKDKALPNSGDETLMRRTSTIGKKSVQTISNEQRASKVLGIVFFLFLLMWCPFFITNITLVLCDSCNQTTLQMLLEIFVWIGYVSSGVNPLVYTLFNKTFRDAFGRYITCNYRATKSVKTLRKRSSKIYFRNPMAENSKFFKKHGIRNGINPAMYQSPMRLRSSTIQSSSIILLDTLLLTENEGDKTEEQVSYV

One assay addresses 5-hydroxytryptamine receptor 2B (Homo sapiens, UniProt P41595). It is filed as cell membranes, CHO-K1, Membrane. To be noted: cho-k1.
Turning to `O.O.O.O.O.O.[Cl-].[Cl-].[Sr+2]` [STRONTIUM CHLORIDE HEXAHYDRATE], the IC50 result is listed as “Not Active”.

Turning to `O=C1C(CC[S+]([O-])c2ccccc2)C(=O)N(c2ccccc2)N1c1ccccc1` (stereo not given) [SULFINPYRAZONE], the IC50 entry is “Not Active”.

As for `NC(=O)N1C(=O)/C(=C(\O)c2cccs2)c2cc(Cl)ccc21` [TENIDAP], the IC50 entry is “Not Active”.

Consider `COc1cc2nc(N3CCN(C(=O)C4CCCO4)CC3)nc(N)c2cc1OC` (stereo not given) [TERAZOSIN], for which the IC50 result is reported as “Not Active”.

In the case of `CN(C/C=C/C#CC(C)(C)C)Cc1cccc2ccccc12` [TERBINAFINE], the IC50 result is given as “Not Active”.

In the case of `CCCCNc1ccc(C(=O)OCCN(C)C)cc1` [TETRACAINE], the Ki result is recorded as “Not Active”.

As to `Cn1c(=O)c2nc[nH]c2n(C)c1=O.O` [THEOPHYLLINE], the IC50 entry is “Not Active”.

Consider `CS(=O)(=O)c1ccc([C@@H](O)[C@@H](CO)NC(=O)C(Cl)Cl)cc1` [THIAMPHENICOL], for which the IC50 result is recorded as “Not Active”.

As for `CCN(CC)CCNC(=O)c1cc(S(C)(=O)=O)ccc1OC` [TIAPRIDE], the IC50 result is on record as “Not Active”.

Take `Clc1ccccc1CN1CCc2sccc2C1` [TICLOPIDINE]: the IC50 entry was “Not Active”.

Turning to `NC1CCN(c2nc3c(cc2F)c(=O)c(C(=O)O)cn3-c2ccc(F)cc2F)C1` (stereo not given) [TOSUFLOXACIN], the IC50 result is on record as “Not Active”.

Regarding `CC(c1cc2ccccc2s1)N(O)C(N)=O` (stereo not given) [ZILEUTON], the IC50 entry is “Not Active”.

The next assay has as its target T1, Vasoactive intestinal polypeptide receptor 1 (Homo sapiens, UniProt P32241). Note: in other assays of this panel Not Active means under 50% inhibition at 10 µM.
T1 sequence (P32241 whole entry): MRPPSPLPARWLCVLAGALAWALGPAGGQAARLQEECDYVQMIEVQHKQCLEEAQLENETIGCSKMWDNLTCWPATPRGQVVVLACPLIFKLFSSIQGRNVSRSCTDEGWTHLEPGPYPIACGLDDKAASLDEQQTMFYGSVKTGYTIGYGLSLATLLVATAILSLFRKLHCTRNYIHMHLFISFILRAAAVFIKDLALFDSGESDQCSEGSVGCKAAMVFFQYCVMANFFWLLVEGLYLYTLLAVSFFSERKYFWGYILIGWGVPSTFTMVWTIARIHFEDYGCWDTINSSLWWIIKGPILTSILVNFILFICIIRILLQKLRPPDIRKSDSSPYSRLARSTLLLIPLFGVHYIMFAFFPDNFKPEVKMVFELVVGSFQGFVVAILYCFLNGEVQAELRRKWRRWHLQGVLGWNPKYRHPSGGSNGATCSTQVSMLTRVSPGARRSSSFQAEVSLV
Format: cell membranes, Membrane. To be noted: ht-29.
For `O.O.O.O.O.O.[Cl-].[Cl-].[Sr+2]` [STRONTIUM CHLORIDE HEXAHYDRATE], the IC50 result was “Not Active”.

`O=C1C(CC[S+]([O-])c2ccccc2)C(=O)N(c2ccccc2)N1c1ccccc1` (stereo not given) [SULFINPYRAZONE]: the IC50 result is reported as “Not Active”.

Regarding `NC(=O)N1C(=O)/C(=C(\O)c2cccs2)c2cc(Cl)ccc21` [TENIDAP], the IC50 entry is “Not Active”.

With `COc1cc2nc(N3CCN(C(=O)C4CCCO4)CC3)nc(N)c2cc1OC` (stereo not given) [TERAZOSIN], the IC50 entry is “Not Active”.

On to `CN(C/C=C/C#CC(C)(C)C)Cc1cccc2ccccc12` [TERBINAFINE], for which the IC50 entry was “Not Active”.

With `CCCCNc1ccc(C(=O)OCCN(C)C)cc1` [TETRACAINE], the IC50 entry is on record as “Not Active”.

For the compound `Cn1c(=O)c2nc[nH]c2n(C)c1=O.O` [THEOPHYLLINE], the IC50 result was “Not Active”.

Turning to `CS(=O)(=O)c1ccc([C@@H](O)[C@@H](CO)NC(=O)C(Cl)Cl)cc1` [THIAMPHENICOL], the IC50 entry was “Not Active”.

In the case of `CCN(CC)CCNC(=O)c1cc(S(C)(=O)=O)ccc1OC` [TIAPRIDE], the IC50 result is “Not Active”.

For the compound `Clc1ccccc1CN1CCc2sccc2C1` [TICLOPIDINE], the IC50 entry is “Not Active”.

As for `NC1CCN(c2nc3c(cc2F)c(=O)c(C(=O)O)cn3-c2ccc(F)cc2F)C1` (stereo not given) [TOSUFLOXACIN], the IC50 entry is listed as “Not Active”.

With `CC(c1cc2ccccc2s1)N(O)C(N)=O` (stereo not given) [ZILEUTON], the IC50 entry is “Not Active”.

A further assay has as its target Cannabinoid receptor 1 (Homo sapiens, UniProt P21554). It is filed as cell membranes, Chem-1, Membrane. To be noted: chem-1. Note: in other assays of this panel Not Active means under 50% inhibition at 10 µM.
Turning to `O.O.O.O.O.O.[Cl-].[Cl-].[Sr+2]` [STRONTIUM CHLORIDE HEXAHYDRATE], the IC50 entry was “Not Active”.

Take `O=C1C(CC[S+]([O-])c2ccccc2)C(=O)N(c2ccccc2)N1c1ccccc1` (stereo not given) [SULFINPYRAZONE]: the IC50 result is given as “Not Active”.

Take `NC(=O)N1C(=O)/C(=C(\O)c2cccs2)c2cc(Cl)ccc21` [TENIDAP]: the IC50 result was “Not Active”.

As for `COc1cc2nc(N3CCN(C(=O)C4CCCO4)CC3)nc(N)c2cc1OC` (stereo not given) [TERAZOSIN], the IC50 entry is given as “Not Active”.

Turning to `CN(C/C=C/C#CC(C)(C)C)Cc1cccc2ccccc12` [TERBINAFINE], the IC50 result is listed as “Not Active”.

As for `CCCCNc1ccc(C(=O)OCCN(C)C)cc1` [TETRACAINE], the IC50 entry is “Not Active”.

Regarding `Cn1c(=O)c2nc[nH]c2n(C)c1=O.O` [THEOPHYLLINE], the IC50 entry is listed as “Not Active”.

In the case of `CS(=O)(=O)c1ccc([C@@H](O)[C@@H](CO)NC(=O)C(Cl)Cl)cc1` [THIAMPHENICOL], the IC50 result is given as “Not Active”.

With `CCN(CC)CCNC(=O)c1cc(S(C)(=O)=O)ccc1OC` [TIAPRIDE], the IC50 result is reported as “Not Active”.

With `Clc1ccccc1CN1CCc2sccc2C1` [TICLOPIDINE], the IC50 entry was “Not Active”.

On to `NC1CCN(c2nc3c(cc2F)c(=O)c(C(=O)O)cn3-c2ccc(F)cc2F)C1` (stereo not given) [TOSUFLOXACIN], for which the IC50 result is “Not Active”.

Turning to `CC(c1cc2ccccc2s1)N(O)C(N)=O` (stereo not given) [ZILEUTON], the IC50 result is on record as “Not Active”.

Another assay deals with Melanocortin receptor 4 (Homo sapiens, UniProt P32245). Format: cell membranes, HEK293, Membrane. To be noted: hek293.
Chain of Melanocortin receptor 4 (P32245 whole entry): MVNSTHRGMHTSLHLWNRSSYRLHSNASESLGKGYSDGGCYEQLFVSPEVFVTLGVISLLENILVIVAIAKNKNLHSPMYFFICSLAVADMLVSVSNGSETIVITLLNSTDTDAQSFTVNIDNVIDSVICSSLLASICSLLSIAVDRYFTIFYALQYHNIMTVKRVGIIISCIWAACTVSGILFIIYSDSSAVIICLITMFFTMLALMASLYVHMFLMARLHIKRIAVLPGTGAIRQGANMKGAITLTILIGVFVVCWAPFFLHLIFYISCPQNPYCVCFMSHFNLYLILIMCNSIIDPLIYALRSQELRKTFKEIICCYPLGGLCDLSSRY
Take `O.O.O.O.O.O.[Cl-].[Cl-].[Sr+2]` [STRONTIUM CHLORIDE HEXAHYDRATE]: the IC50 entry is listed as “Not Active”.

Take `O=C1C(CC[S+]([O-])c2ccccc2)C(=O)N(c2ccccc2)N1c1ccccc1` (stereo not given) [SULFINPYRAZONE]: the IC50 result is “Not Active”.

Turning to `NC(=O)N1C(=O)/C(=C(\O)c2cccs2)c2cc(Cl)ccc21` [TENIDAP], the IC50 entry is “Not Active”.

Turning to `COc1cc2nc(N3CCN(C(=O)C4CCCO4)CC3)nc(N)c2cc1OC` (stereo not given) [TERAZOSIN], the IC50 result was “Not Active”.

On to `CN(C/C=C/C#CC(C)(C)C)Cc1cccc2ccccc12` [TERBINAFINE], for which the IC50 result is “Not Active”.

On to `CCCCNc1ccc(C(=O)OCCN(C)C)cc1` [TETRACAINE], for which the IC50 result was “Not Active”.

Turning to `Cn1c(=O)c2nc[nH]c2n(C)c1=O.O` [THEOPHYLLINE], the IC50 result is “Not Active”.

As for `CS(=O)(=O)c1ccc([C@@H](O)[C@@H](CO)NC(=O)C(Cl)Cl)cc1` [THIAMPHENICOL], the IC50 entry is given as “Not Active”.

Turning to `CCN(CC)CCNC(=O)c1cc(S(C)(=O)=O)ccc1OC` [TIAPRIDE], the IC50 entry is recorded as “Not Active”.

For the compound `Clc1ccccc1CN1CCc2sccc2C1` [TICLOPIDINE], the IC50 entry is reported as “Not Active”.

For the compound `NC1CCN(c2nc3c(cc2F)c(=O)c(C(=O)O)cn3-c2ccc(F)cc2F)C1` (stereo not given) [TOSUFLOXACIN], the IC50 result is given as “Not Active”.

`CC(c1cc2ccccc2s1)N(O)C(N)=O` (stereo not given) [ZILEUTON]: the IC50 entry is on record as “Not Active”.

The target in a further assay is Mu-type opioid receptor (Homo sapiens, UniProt P35372). The experiment in a line: DRUGMATRIX: Opiate mu (OP3, MOP) radioligand binding (ligand: [3H] Diprenorphine). Format: cell membranes, CHO-K1, Membrane. To be noted: cho-k1; Not Active = under 50% inhibition at 10 µM.
Chain of Mu-type opioid receptor (P35372 whole entry): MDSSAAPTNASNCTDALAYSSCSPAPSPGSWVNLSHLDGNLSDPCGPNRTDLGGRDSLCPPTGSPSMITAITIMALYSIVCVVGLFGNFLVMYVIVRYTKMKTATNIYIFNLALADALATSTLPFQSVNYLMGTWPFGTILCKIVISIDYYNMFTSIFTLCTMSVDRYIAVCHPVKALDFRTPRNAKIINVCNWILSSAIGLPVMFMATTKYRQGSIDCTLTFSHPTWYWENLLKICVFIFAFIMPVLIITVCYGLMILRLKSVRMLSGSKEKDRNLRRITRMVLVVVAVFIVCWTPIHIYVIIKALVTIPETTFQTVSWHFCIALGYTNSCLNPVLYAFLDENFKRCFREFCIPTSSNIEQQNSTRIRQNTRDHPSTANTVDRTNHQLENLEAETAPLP
As to `O.O.O.O.O.O.[Cl-].[Cl-].[Sr+2]` [STRONTIUM CHLORIDE HEXAHYDRATE], the IC50 entry was “Not Active”.

Consider `O=C1C(CC[S+]([O-])c2ccccc2)C(=O)N(c2ccccc2)N1c1ccccc1` (stereo not given) [SULFINPYRAZONE], for which the IC50 entry is “Not Active”.

For `NC(=O)N1C(=O)/C(=C(\O)c2cccs2)c2cc(Cl)ccc21` [TENIDAP], the IC50 result is listed as “Not Active”.

On to `COc1cc2nc(N3CCN(C(=O)C4CCCO4)CC3)nc(N)c2cc1OC` (stereo not given) [TERAZOSIN], for which the IC50 result is “Not Active”.

Regarding `CN(C/C=C/C#CC(C)(C)C)Cc1cccc2ccccc12` [TERBINAFINE], the IC50 entry is recorded as “Not Active”.

As for `CCCCNc1ccc(C(=O)OCCN(C)C)cc1` [TETRACAINE], the IC50 entry is recorded as “Not Active”.

As to `Cn1c(=O)c2nc[nH]c2n(C)c1=O.O` [THEOPHYLLINE], the IC50 entry is given as “Not Active”.

As to `CS(=O)(=O)c1ccc([C@@H](O)[C@@H](CO)NC(=O)C(Cl)Cl)cc1` [THIAMPHENICOL], the IC50 result is on record as “Not Active”.

As to `CCN(CC)CCNC(=O)c1cc(S(C)(=O)=O)ccc1OC` [TIAPRIDE], the IC50 entry is listed as “Not Active”.

With `Clc1ccccc1CN1CCc2sccc2C1` [TICLOPIDINE], the IC50 entry is “Not Active”.

`NC1CCN(c2nc3c(cc2F)c(=O)c(C(=O)O)cn3-c2ccc(F)cc2F)C1` (stereo not given) [TOSUFLOXACIN]: the IC50 result is “Not Active”.

With `CC(c1cc2ccccc2s1)N(O)C(N)=O` (stereo not given) [ZILEUTON], the IC50 entry was “Not Active”.
